Drawing on patent publication US8735414B2 (priority 2009, dated 2014), this text covers melting point and IC50 for 26 compounds.

Data set [1] deals with bicistronic HCV replicon (replicon RNA, GenBank Accession No. AJ242654). Nature of the data set: HCV Replicon Assay. The data set is classed as cell-based. The note with it: Hepatitis C virus, 72 h, read-out: Replicon IC50.

Where only a bound is given, the exact number is not on record here.

Compound `Cc1ccc2c(c1)c(C#N)c(-c1ncc(S(=O)(=O)NC(C)C)cn1)n2CC1CC1` [compound 388, 2-[3-cyano-1-(cyclopropylmethyl)-5-methyl-1H-indol-2-yl]-N-(propan-2-yl)pyrimidine-5-sulfonamide] had a melting point of 219 to 222 °C. Besides, the IC50 in data set [1] was in the range of 500 to 2000 nM.

`Cc1cc(-n2c(-c3ccc(S(=O)(=O)N[C@@H](C)C(F)(F)F)cn3)c(C#N)c3cc(F)c(C)cc32)cs1` [compound 1058, 6-[3-cyano-5-fluoro-6-methyl-1-(5-methylthiophen-3-yl)-1H-indol-2-yl]-N-[(2S)-1,1,1-trifluoropropan-2-yl]pyridine-3-sulfonamide] registered a melting point of 210.5 to 215.2 °C. In addition, the IC50 in data set [1] is under 500 nM.

Turning to `N#Cc1c(-c2ccc(S(=O)(=O)NC(CF)CF)cn2)n(C2CCCCC2)c2cc(C3CC3)ccc12` [compound 92, 6-(3-cyano-1-cyclohexyl-6-cyclopropyl-1H-indol-2-yl)-N-(1,3-difluoropropan-2-yl)pyridine-3-sulfonamide], the melting point lay in the range of 193 to 198 °C. In data set [1], the half-inhibitory concentration (IC50) is under 500 nM.

Compound `Cc1cc2c(cc1F)c(C#N)c(-c1ccc(S(=O)(=O)N[C@@H](C)C(F)(F)F)cn1)n2-c1ccsc1Cl` [compound 1057, 6-[1-(2-chlorothiophen-3-yl)-3-cyano-5-fluoro-6-methyl-1H-indol-2-yl]-N-[(2S)-1,1,1-trifluoropropan-2-yl]pyridine-3-sulfonamide] came in with a melting point of 226.7 to 231.8 °C. Moreover, the IC50 in data set [1] was under 500 nM.

Consider `Cc1cc2c(cc1F)c(C(N)=O)c(-c1ccc(S(=O)(=O)N[C@@H](C)C(F)(F)F)cn1)n2-c1ccccn1` [compound 874, 5-fluoro-6-methyl-1-(pyridin-2-yl)-2-(5-{[(2S)-1,1,1-trifluoropropan-2-yl]sulfamoyl}pyridin-2-yl)-1H-indole-3-carboxamide], for which the melting point fell in the range of 142 to 148 °C. Besides, in data set [1], the half-inhibitory concentration (IC50) is under 500 nM.

For the compound `CCCn1c(-c2ccc(S(=O)(=O)N[C@H](C)C(F)(F)F)cn2)c(C#N)c2ccc(F)cc21` [compound 217, 6-(3-cyano-6-fluoro-1-propyl-1H-indol-2-yl)-N-[(2R)-1,1,1-trifluoropropan-2-yl]pyridine-3-sulfonamide], the melting point lay within 195 to 197 °C. In data set [1], the IC50 is 2000 to 5000 nM.

As for `C[C@H](NS(=O)(=O)c1ccc(-c2c(C#N)c3ccc(OC(F)(F)F)cc3n2C2CCCC2)nc1)C1CC1` [compound 320, 6-[3-cyano-1-cyclopentyl-6-(trifluoromethoxy)-1H-indol-2-yl]-N-[(1S)-1-cyclopropylethyl]pyridine-3-sulfonamide], the melting point lay in the range of 133 to 134 °C. In addition, in data set [1], the IC50 was in the range of 500 to 2000 nM.

In turn, `Cc1cc2c(cc1F)c(C#N)c(-c1ccc(S(=O)(=O)N[C@@H](C)C(F)(F)F)cn1)n2-c1cncnc1` [compound 894, 6-[3-cyano-5-fluoro-6-methyl-1-(pyrimidin-5-yl)-1H-indol-2-yl]-N-[(2S)-1,1,1-trifluoropropan-2-yl]pyridine-3-sulfonamide] registered a melting point of 198 to 202 °C. In addition, in data set [1], the half-inhibitory concentration (IC50) is under 500 nM.

Regarding `COc1ccc2c(C#N)c(-c3ccc(S(=O)(=O)N[C@@H](C)C(F)(F)F)cn3)n(C3CCCC3)c2c1` [compound 430, 6-(3-cyano-1-cyclopentyl-6-methoxy-1H-indol-2-yl)-N-[(2S)-1,1,1-trifluoropropan-2-yl]pyridine-3-sulfonamide], the melting point was 209 to 216 °C. In addition, the IC50 in data set [1] was under 500 nM.

The compound `CC(C)(C)NS(=O)(=O)c1ccc(-c2c(C#N)c3ccc(OC(F)F)cc3n2-c2ccccc2)nc1` [compound 624, N-tert-butyl-6-[3-cyano-6-(difluoromethoxy)-1-phenyl-1H-indol-2-yl]pyridine-3-sulfonamide] came in with a melting point of 216 to 218 °C. The IC50 in data set [1] was under 500 nM.

`C[C@H](NS(=O)(=O)c1ccc(-c2c(C#N)c3cc(O)c(OC(F)F)cc3n2C2CCC2)nc1)C(F)(F)F` [compound 674, 6-[3-cyano-1-cyclobutyl-6-(difluoromethoxy)-5-hydroxy-1H-indol-2-yl]-N-[(2S)-1,1,1-trifluoropropan-2-yl]pyridine-3-sulfonamide]: the melting point lay in the range of 174 to 177 °C. In addition, the IC50 in data set [1] is under 500 nM.

On to `Cc1cc2c(cc1F)c(C#N)c(-c1ccc(S(=O)(=O)N[C@@H](C)C(F)(F)F)cn1)n2-c1cc(F)ccn1` [compound 926, 6-[3-cyano-5-fluoro-1-(4-fluoropyridin-2-yl)-6-methyl-1H-indol-2-yl]-N-[(2S)-1,1,1-trifluoropropan-2-yl]pyridine-3-sulfonamide], for which the melting point was 229 to 233 °C. The IC50 in data set [1] is under 500 nM.

In turn, `CC(C)NS(=O)(=O)c1ccc(-c2c(C#N)c3ccc(OC(F)(F)F)cc3n2CC2CC2)nc1` [compound 11, 6-[3-cyano-1-(cyclopropylmethyl)-6-(trifluoromethoxy)-1H-indol-2-yl]-N-(propan-2-yl)pyridine-3-sulfonamide] had a melting point of 203 to 205 °C. Also, in data set [1], the IC50 lay within 500 to 2000 nM.

As to `C[C@H](NS(=O)(=O)c1ccc(-c2c(C#N)c3cc(Cl)ccc3n2C2CCC2)nc1)C(F)(F)F` [compound 376, 6-(5-chloro-3-cyano-1-cyclobutyl-1H-indol-2-yl)-N-[(2S)-1,1,1-trifluoropropan-2-yl]pyridine-3-sulfonamide], the melting point is 193 to 198 °C. Also, in data set [1], the IC50 was under 500 nM.

On to `C[C@H](NS(=O)(=O)c1ccc(-c2c(C#N)c3ccc(CC(F)F)cc3n2C2CCC2)nc1)C1CC1` [compound 590, 6-[3-cyano-1-cyclobutyl-6-(2,2-difluoroethyl)-1H-indol-2-yl]-N-[(1S)-1-cyclopropylethyl]pyridine-3-sulfonamide], for which the melting point lay within 146 to 155 °C. For the same compound, the concentration for half-maximal inhibition (IC50) in data set [1] was under 500 nM.

In the case of `CC(C)(C)NS(=O)(=O)c1ccc(-c2c(C#N)c3cc(F)c(C4CC4)cc3n2-c2ccccc2)nc1` [compound 1117, N-tert-butyl-6-(3-cyano-6-cyclopropyl-5-fluoro-1-phenyl-1H-indol-2-yl)pyridine-3-sulfonamide], the melting point is 219.2 to 220.8 °C. The IC50 in data set [1] was under 500 nM.

Compound `N#Cc1c(-c2ccc(S(=O)(=O)NC3(C(F)(F)F)CC3)cn2)n(C2CCCC2)c2ccc(F)cc12` [compound 327, 6-(3-cyano-1-cyclopentyl-5-fluoro-1H-indol-2-yl)-N-[1-(trifluoromethyl)cyclopropyl]pyridine-3-sulfonamide] came in with a melting point of 202 to 206 °C. For the same compound, the IC50 in data set [1] is under 500 nM.

`CCn1c(-c2ccc(NS(=O)(=O)C3CC3)cn2)c(C#N)c2ccc(OC(C)C)cc21` [compound 285, N-{6-[3-cyano-1-ethyl-6-(propan-2-yloxy)-1H-indol-2-yl]pyridin-3-yl}cyclopropanesulfonamide] showed a melting point of 180 to 185 °C. In addition, the IC50 in data set [1] was 500 to 2000 nM.

In the case of `CC(C)NS(=O)(=O)c1cnc(-c2c(C#N)c3cc(F)ccc3n2CC2CC2)nc1` [compound 303, 2-[3-cyano-1-(cyclopropylmethyl)-5-fluoro-1H-indol-2-yl]-N-(propan-2-yl)pyrimidine-5-sulfonamide], the melting point lay in the range of 215 to 220 °C. For the same compound, the IC50 in data set [1] is under 500 nM.

Turning to `Cc1cc2c(cc1F)c(C#N)c(-c1ccc(S(=O)(=O)N[C@@H](C)C(F)(F)F)cn1)n2-c1cnn(C)c1` [compound 1016, 6-[3-cyano-5-fluoro-6-methyl-1-(1-methyl-1H-pyrazol-4-yl)-1H-indol-2-yl]-N-[(2S)-1,1,1-trifluoropropan-2-yl]pyridine-3-sulfonamide], the melting point lay in the range of 233.7 to 239.3 °C. Moreover, in data set [1], the IC50 was under 500 nM.

Compound `C[C@H](NS(=O)(=O)c1cnc(-c2c(C#N)c3cc(F)ccc3n2C2CCCCC2)nc1)C1CC1` [compound 528, 2-(3-cyano-1-cyclohexyl-5-fluoro-1H-indol-2-yl)-N-[(1S)-1-cyclopropylethyl]pyrimidine-5-sulfonamide] gave a melting point of 219 to 221 °C. Also, the IC50 in data set [1] is under 500 nM.

As for `C[C@H](NS(=O)(=O)c1ccc(-c2c(C(N)=O)c3cc(F)c(OC(F)F)cc3n2C2CCCC2)nc1)C(F)(F)F` [compound 806, 1-cyclopentyl-6-(difluoromethoxy)-5-fluoro-2-(5-{[(2S)-1,1,1-trifluoropropan-2-yl]sulfamoyl}pyridin-2-yl)-1H-indole-3-carboxamide], the melting point was in the range of 220 to 222 °C. In data set [1], the IC50 was under 500 nM.

`CC(C)(C)S(=O)(=O)Nc1ccc(-c2c(C(N)=O)c3c(F)cc(C4CC4)cc3n2C2CCCCC2)cn1` [compound 1088, 2-{6-[(tert-butylsulfonyl)amino]pyridin-3-yl}-1-cyclohexyl-6-cyclopropyl-4-fluoro-1H-indole-3-carboxamide]: the melting point fell in the range of 290 to 294 °C. In addition, in data set [1], the IC50 was under 500 nM.

In the case of `C[C@H](NS(=O)(=O)c1ccc(-c2c(C#N)c3cc(F)c(C4CC4)cc3n2C2CCC2)nc1)C(F)(F)F` [compound 630, 6-(3-cyano-1-cyclobutyl-6-cyclopropyl-5-fluoro-1H-indol-2-yl)-N-[(2S)-1,1,1-trifluoropropan-2-yl]pyridine-3-sulfonamide], the melting point was 201 to 203 °C. For the same compound, the concentration for half-maximal inhibition (IC50) in data set [1] was under 500 nM.

As for `C[C@H](NS(=O)(=O)c1cnc(-c2c(C#N)c3cc(F)ccc3n2CC2CC2)nc1)C(F)(F)F` [compound 548, 2-[3-cyano-1-(cyclopropylmethyl)-5-fluoro-1H-indol-2-yl]-N-[(2S)-1,1,1-trifluoropropan-2-yl]pyrimidine-5-sulfonamide], the melting point lay in the range of 175 to 180 °C. For the same compound, in data set [1], the 50% inhibitory concentration (IC50) fell in the range of 500 to 2000 nM.

As to `C[C@H](NS(=O)(=O)c1cnc(-c2c(C#N)c3ccc(Cl)cc3n2C2CCCC2)nc1)C(F)(F)F` [compound 417, 2-(6-chloro-3-cyano-1-cyclopentyl-1H-indol-2-yl)-N-[(2S)-1,1,1-trifluoropropan-2-yl]pyrimidine-5-sulfonamide], the melting point is 220 to 224 °C. The IC50 in data set [1] lay in the range of 500 to 2000 nM.
